Series [1] can be described thus: Tlast in CD1 mouse at 1 mg/kg, iv administered as single dose measured after 24 hrs by LC-MS/MS analysis. In kind it is ADME, organism-based. As to conditions: in vivo.
For series [2], the target named is T1, Adenosine receptor A3 (Homo sapiens) (UniProt P0DMS8).
T1 sequence (whole entry): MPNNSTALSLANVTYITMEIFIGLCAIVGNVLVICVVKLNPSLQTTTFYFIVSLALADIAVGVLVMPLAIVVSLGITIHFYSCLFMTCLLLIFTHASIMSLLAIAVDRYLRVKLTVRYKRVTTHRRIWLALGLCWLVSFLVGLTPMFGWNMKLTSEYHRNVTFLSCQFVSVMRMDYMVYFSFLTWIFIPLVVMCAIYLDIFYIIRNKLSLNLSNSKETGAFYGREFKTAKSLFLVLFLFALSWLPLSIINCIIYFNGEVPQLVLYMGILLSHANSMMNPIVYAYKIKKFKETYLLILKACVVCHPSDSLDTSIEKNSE
Nature of the series: Inhibition of adenosine A3 receptor (unknown origin) at 10 uM relative to control.

The target of series [3] is T2, D(2) dopamine receptor (Homo sapiens, UniProt P14416). In words: Inhibition of dopamine D2 receptor (unknown origin).
T2 sequence (P14416 whole entry): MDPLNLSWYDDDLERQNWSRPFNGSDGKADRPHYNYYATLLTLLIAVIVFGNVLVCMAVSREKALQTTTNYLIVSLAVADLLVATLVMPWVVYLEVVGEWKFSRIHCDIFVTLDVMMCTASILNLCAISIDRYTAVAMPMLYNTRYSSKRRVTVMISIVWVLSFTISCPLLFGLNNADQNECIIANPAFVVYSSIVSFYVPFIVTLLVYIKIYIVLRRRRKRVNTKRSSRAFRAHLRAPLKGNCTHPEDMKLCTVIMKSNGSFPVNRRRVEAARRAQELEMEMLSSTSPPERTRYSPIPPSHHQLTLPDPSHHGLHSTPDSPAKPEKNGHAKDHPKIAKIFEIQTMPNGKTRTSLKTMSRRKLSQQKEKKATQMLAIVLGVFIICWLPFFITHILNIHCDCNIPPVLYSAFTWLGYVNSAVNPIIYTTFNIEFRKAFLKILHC
Series [4] is described as follows: AUC(0 to t) in CD1 mouse at 10 mg/kg, po administered as single dose measured after 24 hrs by LC-MS/MS analysis. In kind it is ADME, organism-based. Details: time 24 hrs, dose 10 mg/kg, route po. As to conditions: in vivo.
In series [5] the target is T2, D(2) dopamine receptor. In words: Inhibition of dopamine D2 receptor (unknown origin) at 10 uM relative to control.
The target in series [6] is T3, Angiotensin-converting enzyme (Homo sapiens, UniProt P12821). Nature of the series: Inhibition of angiotensin-converting enzyme (unknown origin).
T3 sequence (P12821 whole entry): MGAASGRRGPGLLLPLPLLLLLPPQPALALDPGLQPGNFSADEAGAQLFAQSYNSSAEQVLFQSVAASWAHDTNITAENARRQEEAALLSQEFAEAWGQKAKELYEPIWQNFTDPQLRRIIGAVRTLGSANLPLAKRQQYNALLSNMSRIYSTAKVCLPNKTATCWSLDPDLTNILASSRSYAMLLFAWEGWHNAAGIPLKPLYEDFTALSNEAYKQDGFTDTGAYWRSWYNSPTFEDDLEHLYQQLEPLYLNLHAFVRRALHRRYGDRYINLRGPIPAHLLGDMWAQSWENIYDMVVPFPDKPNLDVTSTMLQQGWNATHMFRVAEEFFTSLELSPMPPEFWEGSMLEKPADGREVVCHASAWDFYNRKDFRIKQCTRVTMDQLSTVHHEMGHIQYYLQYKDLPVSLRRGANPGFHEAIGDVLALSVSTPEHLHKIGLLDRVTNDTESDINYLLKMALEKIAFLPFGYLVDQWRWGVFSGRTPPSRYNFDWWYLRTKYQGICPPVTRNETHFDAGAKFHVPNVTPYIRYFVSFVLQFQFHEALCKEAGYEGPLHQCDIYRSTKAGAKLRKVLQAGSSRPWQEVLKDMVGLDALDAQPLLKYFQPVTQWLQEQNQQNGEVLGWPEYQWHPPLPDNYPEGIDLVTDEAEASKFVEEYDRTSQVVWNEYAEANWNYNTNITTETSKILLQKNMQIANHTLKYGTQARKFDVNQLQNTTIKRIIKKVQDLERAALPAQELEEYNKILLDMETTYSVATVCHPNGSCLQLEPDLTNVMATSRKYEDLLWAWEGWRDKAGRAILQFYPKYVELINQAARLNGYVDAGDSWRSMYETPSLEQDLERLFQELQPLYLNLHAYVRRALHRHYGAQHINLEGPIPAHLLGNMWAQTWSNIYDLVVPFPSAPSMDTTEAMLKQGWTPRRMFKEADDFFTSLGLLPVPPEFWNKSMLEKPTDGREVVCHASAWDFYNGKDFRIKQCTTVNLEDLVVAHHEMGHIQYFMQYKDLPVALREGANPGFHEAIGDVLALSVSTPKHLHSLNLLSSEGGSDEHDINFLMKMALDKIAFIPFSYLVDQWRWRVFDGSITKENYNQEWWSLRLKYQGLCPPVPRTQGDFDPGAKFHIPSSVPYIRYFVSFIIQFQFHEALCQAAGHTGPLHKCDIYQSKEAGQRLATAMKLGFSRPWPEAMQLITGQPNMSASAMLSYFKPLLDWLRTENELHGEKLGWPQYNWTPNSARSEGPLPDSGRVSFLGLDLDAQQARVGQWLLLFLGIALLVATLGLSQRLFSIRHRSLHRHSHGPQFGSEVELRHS
The nature of series [7]: Cmax in CD1 mouse at 10 mg/kg, po administered as single dose measured after 24 hrs by LC-MS/MS analysis. In kind it is ADME, organism-based. As to conditions: in vivo. Details: dose 10 mg/kg, time 24 hrs, route po.
Series [8] concerns the target T4, Muscarinic acetylcholine receptor M2 (Homo sapiens) (UniProt P08172).
T4 sequence (whole entry): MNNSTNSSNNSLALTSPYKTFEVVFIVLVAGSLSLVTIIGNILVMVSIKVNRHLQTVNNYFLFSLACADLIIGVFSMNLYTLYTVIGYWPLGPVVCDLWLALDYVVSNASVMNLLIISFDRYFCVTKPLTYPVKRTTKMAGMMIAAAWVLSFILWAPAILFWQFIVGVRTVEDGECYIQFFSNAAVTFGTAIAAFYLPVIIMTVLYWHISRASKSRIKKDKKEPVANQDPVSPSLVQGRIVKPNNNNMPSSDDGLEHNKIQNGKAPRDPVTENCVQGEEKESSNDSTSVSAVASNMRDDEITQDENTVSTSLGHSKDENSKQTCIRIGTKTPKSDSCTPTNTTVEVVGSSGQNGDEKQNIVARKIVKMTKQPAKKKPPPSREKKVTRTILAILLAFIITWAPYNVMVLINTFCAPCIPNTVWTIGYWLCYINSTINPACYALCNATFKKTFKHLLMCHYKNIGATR
In words: Inhibition of muscarinic M2 receptor (unknown origin) at 10 uM relative to control.

Series [9] is described as follows: Terminal half life in CD1 mouse at 1 mg/kg, iv administered as single dose measured after 24 hrs by LC-MS/MS analysis. In kind it is ADME, organism-based. As to conditions: in vivo, read-out: beta t1/2 (converted).
For another series, the target named is T5, Adenosine receptor A3 (Homo sapiens, UniProt P0DMS8).
T5 sequence (P0DMS8 whole entry): T1 sequence (whole entry)
Nature of the series: Inhibition of adenosine A3 receptor (unknown origin).

The next series deals with L-363. In words: Antiproliferative activity against human L-363 cells assessed as cell growth inhibition. In kind it is functional.
Series [10] can be described thus: Volume of distribution at steady state in CD1 mouse at 1 mg/kg, iv administered as single dose measured after 24 hrs by LC-MS/MS analysis. In kind it is ADME, organism-based. As to conditions: in vivo, read-out: Vdss.
Series [11] concerns the target T3, Angiotensin-converting enzyme. In words: Inhibition of angiotensin converting enzyme (unknown origin) at 10 uM relative to control.
Series [12] can be described thus: Toxicity in Balb/c nude mouse allografted with mouse BaF3 cells harboring EGFR L858R/C797S mutant assessed as tolerability at 10 mg/kg, po administered twice daily for 20 days. In kind it is organism-based. As to conditions: in vivo, 480 h, time 20 day.
The next series relates to BaF3. Nature of the series: Cytotoxicity against mouse BaF3 cells expressing EGFR L858R/T790M/C797S mutant assessed as reduction in cell viability measured after 72 hrs by cell titre glo luminescence assay. The format is functional, cell-based. As to conditions: BaF3, 72 h.
Series [13] can be described thus: AUC(0 to t) in CD1 mouse at 1 mg/kg, iv administered as single dose measured after 24 hrs by LC-MS/MS analysis. The format is ADME, organism-based. Further details: time 24 hrs, dose 1 mg/kg, route iv. As to conditions: in vivo.
Series [14] in a line: Tmax in CD1 mouse at 10 mg/kg, po administered as single dose measured after 24 hrs by LC-MS/MS analysis. In kind it is ADME, organism-based. As to conditions: in vivo.
Series [15] is described as follows: Toxicity in Balb/c nude mouse allografted with mouse BaF3 cells harboring EGFR L858R/C797S mutant assessed as change in body weight at 10 mg/kg, po administered twice daily for 20 days. To be noted: in vivo, 480 h, time 20 day. The format is organism-based.
The test system of a further series is NCI-H1975. Nature of the series: Antitumor activity against human NCI-H1975 cells harboring EGFR L858R/T790M mutant xenografted in Balb/c nude mouse assessed as in tumor growth inhibition at 10 mg/kg, po administered once daily measured after 14 days in presence of osimertinib. The format is functional. To be noted: NCI-H1975, 336 h, time 14 day, read-out: TGI. For orientation: In xenograft studies the graft and the host belong to different species.

Another series has as its target T6, Glucocorticoid receptor (Homo sapiens, UniProt P04150).
T6 sequence (P04150 whole entry): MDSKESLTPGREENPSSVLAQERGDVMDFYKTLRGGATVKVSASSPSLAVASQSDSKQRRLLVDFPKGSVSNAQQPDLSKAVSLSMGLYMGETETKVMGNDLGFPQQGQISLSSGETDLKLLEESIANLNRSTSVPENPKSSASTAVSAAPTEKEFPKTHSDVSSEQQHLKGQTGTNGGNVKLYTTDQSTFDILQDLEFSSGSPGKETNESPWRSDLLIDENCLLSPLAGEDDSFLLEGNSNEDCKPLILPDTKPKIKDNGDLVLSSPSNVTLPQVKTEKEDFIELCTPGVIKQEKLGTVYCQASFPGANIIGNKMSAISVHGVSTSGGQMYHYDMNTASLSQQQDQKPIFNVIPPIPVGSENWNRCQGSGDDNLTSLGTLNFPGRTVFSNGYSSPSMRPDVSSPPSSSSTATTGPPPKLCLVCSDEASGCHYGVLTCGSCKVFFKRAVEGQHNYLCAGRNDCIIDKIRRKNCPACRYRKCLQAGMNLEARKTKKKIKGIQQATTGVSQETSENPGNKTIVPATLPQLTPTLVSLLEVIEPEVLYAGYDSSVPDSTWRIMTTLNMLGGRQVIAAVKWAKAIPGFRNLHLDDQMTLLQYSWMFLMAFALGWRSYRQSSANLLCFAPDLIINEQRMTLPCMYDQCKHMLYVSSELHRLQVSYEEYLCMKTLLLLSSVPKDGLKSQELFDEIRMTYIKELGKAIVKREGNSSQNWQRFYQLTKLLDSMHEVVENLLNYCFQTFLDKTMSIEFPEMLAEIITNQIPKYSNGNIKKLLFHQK
In words: Inhibition of glucocorticoid receptor (unknown origin).

Series [16] deals with T7, Muscarinic acetylcholine receptor M2 (Homo sapiens, UniProt P08172).
T7 sequence (P08172 whole entry): T4 sequence (whole entry)
Nature of the series: Inhibition of muscarinic M2 receptor (unknown origin).

The nature of series [17]: AUC (0 to infinity) in CD1 mouse at 1 mg/kg, iv administered as single dose measured after 24 hrs by LC-MS/MS analysis. In kind it is ADME, organism-based. Details: time 24 hrs, dose 1 mg/kg, route iv. To be noted: in vivo.

Broadly, the inhibition is the change of the read-out against control, counted positive when it falls. Read a high inhibition as strong suppression. By IC50 is commonly meant the concentration that gives 50% inhibition. What is called AUC(0-t) is exposure summed from dosing to a finite time, without extrapolation to infinity. The low end stands for less exposure, the high end for more exposure. As a reminder, the Cmax is the highest concentration seen after dosing. In general, GI50 refers to the concentration that inhibits growth by half. The Tmax is the time at which the peak concentration occurs. As usually defined, the AUC(0-inf) is total exposure, with the tail of the curve extrapolated. Low values mean low exposure, high ones high exposure.

Each structure is given as a SMILES string.

In [1], `Cc1c(C#Cc2ccc(CN3CCC(CO)CC3)cc2)cc(C(F)F)c2cn(C(C(=O)Nc3nccs3)c3ncn4c3CCC43CC3)nc12` (configuration not stated) had a Tlast of 24 h. The inhibition came out at 94% in series [2], 98% on D(2) dopamine receptor [5], 91% in series [8] and 96% in series [11]. Besides, the IC50 is 1000 nM at D(2) dopamine receptor [3]; greater than 3000 nM in [6]; 200 nM against Adenosine receptor A3; 1 nM in the series with BaF3; 3200 nM on Glucocorticoid receptor; 1800 nM in series [16]. In addition, the results for the AUC(0-t) at 24 h in [4] and in [13] were 1790 ng·h/mL and 803 ng·h/mL, respectively. In series [7], this molecule registered a Cmax of 135 ng/mL. The half-life in series [9] was 6.6 h. The concentration for 50% growth inhibition (GI50) with L-363 came out at 1320 nM. In addition, the Vd in series [10] was 10 L/kg. The Activity entry in series [12] and in series [15] was “Non-Toxic” each time. The Tmax in series [14] came to 5 h. For the same molecule, the inhibition in vivo at 10 mg/kg with NCI-H1975 was 100%. Moreover, the AUC(0-inf) in series [17] came to 871 ng·h/mL.

Source of the values: ChEMBL document CHEMBL5113538, “Discovery of Novel Allosteric EGFR L858R Inhibitors for the Treatment of Non-Small-Cell Lung Cancer as a Single Agent or in Combination with Osimertinib” (J Med Chem, 2022).
